# Data from a melting point compilation (Tetko et al.; mined from patent text by program, amines drawn as free bases though some values may be those of a salt).
row,melting point,SMILES
1,196 to 198 °C,COc1cc(OC)c2c(=O)[nH]c(-c3cc(C)c(OCCN4CCOCC4)c(C)c3)cc2c1
2,213 to 215 °C,COC(=O)Nc1cn2nc(OCc3cc(OC)c(OC)c(OC)c3)ccc2n1
3,252 to 254 °C,Cc1cc2c(c(C3=NNC(=O)CC3C)c1)OCC(=O)N2 (stereo unspecified)
4,145 to 146 °C,CCc1noc(-c2cn(-c3cccc(Oc4ccc([N+](=O)[O-])cc4)c3)cn2)n1
5,> 300 °C,COc1ccc(N2CCN(c3ccc(-n4c(C)c[nH]c4=O)cc3)CC2)cc1
6,207 to 208 °C,CN(c1cc(OCCCS(C)(=O)=O)cc2cc(C(=O)O)[nH]c12)S(=O)(=O)c1ccccn1
7,268 to 270 °C,CCS(=O)(=O)C1C(OC)(OC)CC2C3CCC4=CC(=O)C=CC4(C)C3(F)C(O)CC21C (stereo unspecified)
8,74 to 75 °C,CCC(=O)C1=CCC(c2c(C)c(C)c3c(c2Cl)CC(C)(C)C3)CC1=O (stereo unspecified)
9,216 °C,O=C(O)c1ccccc1NC(C(=O)O)c1ccc(Br)cc1 (stereo unspecified)
10,98 to 100 °C,CCCCCCC(=O)NCC(=O)O
11,61 to 62 °C,CCCc1cn(CCO)nc1OCc1ccc2ccccc2n1
12,152 to 154 °C,C[C@H](Nc1nc(N=[N+]=[N-])nc(Cl)c1-c1c(F)cc(F)cc1F)C(F)(F)F
13,165 to 167 °C,COc1ccc(C2=NN(c3cccc(C(=O)O)c3)C(=O)C(C)(C)C2)cc1OC
14,94 to 95 °C,CCCCN1C[C@H](CO)[C@@H](O)[C@H](O)C1
15,64 to 69 °C,COc1ccc(C2CCN(C)CC2)cc1Nc1ncc2ccc(-c3ccccc3OC)n2n1
16,126 to 127 °C,O=C(CCc1ccccc1)N[C@H](Cc1ccc(C(F)(F)F)c(F)c1)[C@@H](O)c1ccc(F)cc1 (racemic)
17,122 to 124 °C,CCOCc1cc2ccc(OCc3ccccc3)cc2oc1=O
18,92 to 93 °C,CC(=O)N1c2ccccc2SC1C#N (stereo unspecified)
19,154 to 156 °C,CC(C)n1nc(-c2c(-c3ccccc3)nn3ccc(OCCc4ccccc4)cc23)ccc1=O
20,116 to 118 °C,Cc1ccc(S(=O)(=O)OCC2Cc3cccc(-c4ccc(C(F)(F)F)cc4)c3O2)cc1 (stereo unspecified)
21,128 to 129 °C,COc1cc(NS(=O)(=O)c2cccs2)c2[nH]c(C(=O)NCCSC(c3ccccc3)(c3ccccc3)c3ccccc3)cc2c1
22,241 to 245 °C,CC(C)(C)CN1C(=O)[C@H](CC(=O)O)O[C@@H](c2ccccc2Cl)c2cc(Cl)ccc21
23,157 °C,COC(=O)c1cc([N+](=O)[O-])ccc1-c1c(OC)cccc1OC

row,melting point,SMILES
1,308 to 310 °C,COc1ccc(C2C3=C(COC3=O)Nc3ccc4nn[nH]c4c32)c(F)c1 (stereo unspecified)
2,154 to 156 °C,O=C(Nc1ccccc1N1CCOCC1)c1cccc2c1C(=O)c1ccccc1-2
3,172 to 175 °C,Fc1cc(F)cc(-c2cccc3[nH]c4c(c23)CCN(Cc2ccccc2)CC4)c1
4,53 to 54 °C,N#Cc1ccn2ccccc12
5,> 200 °C,Cc1cc(C)c(C=C(C(=O)O)c2csc(N)n2)c(C)c1
6,216 °C,OC1CSC(Oc2cccnc2)C(O)C1O (stereo unspecified)
7,188 to 190 °C,CN(C)CCC1CCCCN1C(=O)N1c2ccccc2C(=O)Nc2cccnc21 (stereo unspecified)
8,195 to 205 °C,CC(C)(C)CC(=O)NN1C(=O)C(NC(=O)Nc2cccc(N)c2)CC(c2ccccc2)CC1c1ccccc1 (stereo unspecified)
9,215 to 219 °C,O=C(CNc1ccccc1Cl)Nc1c(Cl)ccc2nc(N3CC[C@@H](O)C3)ccc12
10,62 to 63 °C,CCCCCCCCCCCCCCOc1ccc(CN(Cc2ccccn2)S(C)(=O)=O)cc1
11,155 to 156 °C,O=C(Nc1ccsc1)c1ccccc1
12,147 to 149 °C,CC(C)(C)NC(=O)[C@@H]1CC(=O)CN1C(=O)OC(C)(C)C
13,92 to 94 °C,CC(CC(O)=S)(c1ccc(OCc2ccc3ccccc3n2)cc1)c1ccc(OCc2ccc3ccccc3n2)cc1
14,87 to 88 °C,COCCNc1nccc(Oc2ccc(NC(=O)c3cc(F)cc(N4CCCCC4)c3)c3ccccc23)n1
15,74 °C,COC(=O)c1ccc([N+](=O)[O-])s1
16,72 to 73 °C,CCOC(=O)Cc1c(Cl)nc(-c2ccccc2)n1Cc1ccccc1
17,126 °C,Nc1c(I)c(C(F)(F)F)nn1-c1c(Cl)cc(C(F)(F)F)cc1Cl
18,191 °C,COc1cc(CNc2ccc3c(c2)N2CCCN=C2S3)cc(OC)c1OC
19,134 to 135 °C,CCOC(=O)CCc1cccc(NC(=O)c2cc(-c3ccc(C(F)(F)F)cc3)oc2C)c1
20,93 °C,CCC[C@H]1CC[C@H](OC(=O)c2ccc(OCC)c(F)c2F)CC1
21,241 to 243 °C,COc1cc(I)cc2c(O)c(C(=O)NCc3ccc(Cl)cc3)cnc12
22,168 to 169 °C,O=C(CCC#Cc1ccccn1)Nc1cccc(Cl)c1
23,73.9 °C,N#CC(CCOc1ccc(Br)cc1)c1ccc(Cl)cc1Cl (stereo unspecified)

row,melting point,SMILES
1,118 °C,COC(=O)CNC(=O)c1ccc2ccccc2c1
2,168 to 171 °C,Cc1ccc(S(=O)(=O)ON=C(CCN2C(=O)c3ccccc3C2=O)n2nc(C)c(Cl)c2N)cc1
3,142 to 143 °C,Cc1ccccc1CN1CCC(c2cc(-c3ccc(Cl)cc3)[nH]n2)CC1
4,199 to 200 °C,O=C(/C=C/c1ccc(S(=O)(=O)N2CCN(c3ccc([N+](=O)[O-])cc3)CC2)cc1)NO
5,102 to 104 °C,OCCON=Cc1cncc(-c2ccccc2)c1
6,252 to 253 °C,O=c1ccn(-c2ccc(F)cc2)nc1-c1ccnn1-c1ccccc1
7,102 to 105 °C,C=CCN1C(=O)C(C)(CN2CCN(c3cccc4c3OCCO4)CC2)N=C1c1cccnc1 (stereo unspecified)
8,194 to 196 °C,COc1cc2c(Nc3ccc(Cl)cc3F)ncnc2cc1OCCN(C)C(=O)OC(C)(C)C
9,171 to 172 °C,O=C(Nc1ccc(F)c(C(F)(F)F)c1)c1cccc2cc(OS(=O)(=O)C(F)(F)F)ccc12
10,267 to 271 °C,Cn1cc(-c2cc3nccnc3[nH]2)c2cc(OC3(CO)CCC3)ccc21
11,69 °C,C=CCc1cc(C=C(C(=O)OCC)C(=O)OCC)ccc1OC
12,151 to 152 °C,COc1ccc(C(=O)N2CCc3cc(OCc4ccccc4)c(OC)cc3C2=O)cc1
13,127 °C,CCNC(=O)N1CCc2cc(S(=O)(=O)N3CC(c4ccccc4)NC3=O)ccc21 (stereo unspecified)
14,115 °C,N#Cc1ccc(OCCc2coc(-c3ccccc3)n2)cc1
15,164 to 165 °C,O=C1NC(=O)C(Cc2ccc(OCc3nc(-c4ccccc4)cs3)cc2)S1 (stereo unspecified)
16,> 300 °C,N#Cc1cccc(-c2ccc3cc[nH]c(=O)c3c2)c1
17,201 °C,NC(=O)c1ccc(-c2nc(O)c3c(n2)CCC3)cc1
18,210 to 211 °C,Cc1nc(-c2cc3cccc(NS(=O)(=O)c4cccs4)c3[nH]2)sc1C
19,227 °C,CCCn1c(=O)c2[nH]c(/C=C/c3ccc(OCOC)c(OC)c3)nc2n(CCC)c1=O
20,164 °C,COc1ccc(CC2(C(F)F)NC(=O)NC2=O)cc1 (stereo unspecified)
21,218 to 220 °C,O=C(N[C@H]1CCN(C(=O)c2cc(C(F)(F)F)cc(C(F)(F)F)c2)[C@H](Cc2ccc(Cl)cc2)C1)c1cc(=O)c2ccc(Cl)cc2o1
22,> 400 °C,O=C(O)c1ccc(-c2ccc(C(=O)O)cn2)nc1
23,200 °C,CC1(C)OC(=S)Nc2ccc(-c3ccc(C#N)o3)cc21

row,melting point,SMILES
1,183 to 185 °C,CCOC(=O)Cc1[nH]c(C(=O)c2ccccc2)c(C)c1C(=O)O
2,174 to 175 °C,Cc1nc(C)c(Cn2nnnc2-c2cccc(Cl)c2Cl)s1
3,258 to 260 °C,CCOC(=O)N1CCn2c(nc(-c3ccncc3)cc2=O)C(NC(=O)c2ccc3c(c2)CNCC3)C1 (racemic)
4,48 to 49 °C,Clc1nsnc1-c1cccnc1
5,150 to 152 °C,CC(=O)NC[C@H]1CN(c2ccc(N3CCC(CC#N)CC3)cc2)C(=O)O1
6,174 to 178 °C,COc1ccc(C(=O)Nc2c(Cl)cncc2Cl)c2c1OC(C)(C)C=C2
7,156 to 158 °C,CCCN(c1ccncc1)n1ccc2cc(OC(=O)NCc3ccccc3)ccc21
8,108 to 120 °C,COc1cc(C(=O)O)ccc1CNC(=O)C1Cc2ccccc2N1S(=O)(=O)c1ccc(-c2cccc(C(F)(F)F)c2)cc1 (stereo unspecified)
9,74 to 78 °C,CC1(C)CC(O)CC(C)(C)N1OC1CCCCC1
10,55 to 56 °C,CCCCCCCCCCc1cc(CO)on1
11,321 to 325 °C,NC(=O)Nc1nc2c(s1)-c1c(cnn1-c1ccccc1)CC2
12,148 to 150 °C,FC(F)(F)c1cccc(-c2cc(C3CCNCC3)nnc2-c2ccncc2)c1
13,> 230 °C,COc1ccc(-c2ccc3[nH]c(C(=O)O)cc3c2)cc1
14,93 to 95 °C,CN(C)c1ccc(NC(=O)C2C(=O)C3CC[C@](C)(C2=O)C3(C)C)cc1 (stereo partly specified)
15,198 to 200 °C,C=Cc1c(F)c(N2CCN(CC)CC2)c(F)c2c1c(=O)c(C(=O)O)cn2C1CC1
16,70 °C,COC(=O)Cc1ccc(CNC(=O)C2Cc3ccccc3N2S(=O)(=O)c2ccc(-c3ccc(F)cc3Cl)cc2)cc1 (stereo unspecified)
17,286 to 291 °C,CC1(C)Cc2c(ccc3c2C(c2cccc(-c4ccc(C(=O)O)cc4)c2)=NCC3(C)C)O1
18,210 to 212 °C,COC(=O)c1cc(=NS(=O)(=O)c2ccc(C)cc2)c2c(Cl)cc(Cl)cc2[nH]1
19,182 to 184 °C,O=C(Nc1c[nH]nc1C(=O)NCCCOc1ccccc1)c1ccccn1
20,174 to 177 °C,CC(C)c1cccc(C(C)C)c1NC(=O)NCC1(c2c(Cl)cccc2Cl)CCC1
21,191 to 192 °C,CC[C@@]12C[C@H](O)[C@](O)(c3ccccc3)C[C@H]1CCc1cc(O)ccc12
22,88 °C,CN(C)CCSc1cc(NC(=O)OC(C)(C)C)c(NC(=O)CC(=O)c2cccc(C#N)c2)cc1C#Cc1ccccc1

row,SMILES,melting point
1,O=C(NC1N=C(c2ccccc2F)c2ccccc2N(CC(=O)N2CC3CCC(CC3)C2)C1=O)c1cccc(O)c1 (racemic),> 250 °C
2,CN1CCN(c2cccc3ccc(NC(N)=S)cc23)CC1,194 to 195 °C
3,C=C1CC2(CC)C(=O)CC(OC(C)=O)C2C2CCC3=CC(=O)CCC3C12 (stereo unspecified),176 °C
4,CN1CC(CCN2CCOCC2)Oc2ncccc2C1=S (stereo unspecified),152 to 153 °C
5,CC(Br)CCC(C)(N)P(O)O (stereo unspecified),146 to 148 °C
